Test results: ChEMBL document CHEMBL6078666, “Discovery of Novel Coumarin Pleuromutilin Derivatives as Potent Anti-MRSA Agents” (J Med Chem, 2024)
Converted amounts (≈) assume the structure as drawn. The source made the active and inactive calls. The rule behind the calls is not given here.

Assays:
Staphylococcus aureus [1] = test: Antibacterial activity against methicillin-resistant Staphylococcus aureus ATCC 33591 assessed as bacterial growth inhibition measured after 20 hrs by broth dilution method; format: functional
[2] = tested on: Staphylococcus epidermidis; test: Antibacterial activity against Staphylococcus epidermidis ATCC 51625 assessed as bacterial growth inhibition measured after 20 hrs by broth dilution method; format: functional
Enterococcus faecium [3] = test: Antibacterial activity against vancomycin-resistant Enterococcus faecium ATCC 700221 assessed as bacterial growth inhibition measured after 20 hrs by broth dilution method; format: functional
Streptococcus pneumoniae = test: Antibacterial activity against penicillin-intermediate Streptococcus pneumoniae ATCC 49619 assessed as bacterial growth inhibition measured after 20 hrs by broth dilution method; format: functional
Staphylococcus aureus [4] = test: Ratio of MBC to MIC against methicillin-resistant Staphylococcus aureus ATCC 33591; format: functional
Staphylococcus aureus [5] = test: Ratio of MBC to MIC against Staphylococcus aureus ATCC 43300; format: functional
Enterococcus faecium [6] = test: Ratio of MBC to MIC against vancomycin-resistant Enterococcus faecium ATCC 700221; format: functional
Staphylococcus aureus [7] = test: Antibacterial activity against methicillin-resistant Staphylococcus aureus clinical isolate 202405157 assessed as bacterial growth inhibition measured after 20 hrs by broth dilution method; format: functional
[8] = tested on: Staphylococcus epidermidis; test: Antibacterial activity against methicillin-resistant Staphylococcus epidermidis clinical isolate 202409454 assessed as bacterial growth inhibition measured after 20 hrs by broth dilution method; format: functional
Staphylococcus aureus [9] = test: Ratio of MBC to MIC against methicillin-resistant Staphylococcus aureus clinical isolate 202311772; format: functional
Staphylococcus aureus [10] = test: Ratio of MBC to MIC against methicillin-resistant Staphylococcus aureus clinical isolate 202405157; format: functional
Enterococcus faecium [11] = test: Ratio of MBC to MIC against vancomycin-resistant Enterococcus faecium clinical isolate 202308456; format: functional
Staphylococcus aureus [12] = test: Bactericidal activity against methicillin-resistant Staphylococcus aureus ATCC 33591 at 1 times MIC measured upto 24 hrs by time kill assay; format: functional, organism-based
Staphylococcus aureus [13] = test: Bactericidal activity against methicillin-resistant Staphylococcus aureus ATCC 33591 at 4 to 8 times MIC measured after 6 to 8 hrs by time kill assay; format: functional, organism-based; conditions: time 6-8 hrs
Staphylococcus aureus [14] = test: Bactericidal activity against methicillin-resistant Staphylococcus aureus ATCC 33591 at 1 to 8 times MIC by time kill assay; format: functional, organism-based; conditions: time <= 24.0 hrs
Staphylococcus aureus [15] = test: Bactericidal activity against methicillin-resistant Staphylococcus aureus ATCC 33591 measured upto 24 hrs by time kill assay; format: functional, organism-based
Staphylococcus aureus [16] = test: Drug resistance, ratio of MIC for Staphylococcus aureus ATCC 33591 after 8 days to MIC for methicillin-resistant Staphylococcus aureus ATCC 33591 after initial exposure; format: functional; conditions: time 8 day
Staphylococcus aureus [17] = test: Antibacterial activity against Staphylococcus aureus ATCC 33591 measured after 9 days; format: functional, organism-based; conditions: time 9.0 day
Staphylococcus aureus [18] = test: Antibacterial activity against methicillin resistant Staphylococcus aureus ATCC 33591 assessed as post antibiotic effect at 2 times MIC by time kill assay; format: functional
Staphylococcus aureus [19] = test: Antibiofilm activity in methicillin-resistant Staphylococcus aureus ATCC 33591 assessed as inhibition of biofilm formation at 1/16 time MIC measured after 48 hrs by crystal violet staining based analysis relative to control; format: functional; parameters: scale not given: the % may be the effect or the level left
Staphylococcus aureus [20] = test: Antibiofilm activity in methicillin-resistant Staphylococcus aureus ATCC 33591 assessed as inhibition of biofilm formation at 1/16 times MIC measured after 48 hrs by crystal violet staining based analysis relative to control; format: functional; parameters: scale not given: the % may be the effect or the level left
Staphylococcus aureus [21] = test: Antibiofilm activity in methicillin-resistant Staphylococcus aureus ATCC 33591 assessed as disruption of preformed biofilm at 4 to 16 times MIC measured after 24 hrs by crystal violet staining based assay relative to control; format: functional
Staphylococcus aureus [22] = test: Antibiofilm activity in methicillin-resistant Staphylococcus aureus ATCC 33591 measured after 24 hrs by MTT assay; format: functional
Staphylococcus aureus [23] = test: Antibacterial activity against Staphylococcus aureus ATCC 25923 assessed as reduction in GFP expression at 1 to 4 times MIC measured after 1 hr by fluorescence microscopy based analysis; format: functional, organism-based
Staphylococcus aureus [24] = test: Induction of morphological changes in methicillin-resistant Staphylococcus aureus ATCC 33591 assessed as appearance of rough cell surface at 1 time MIC measured after 4 hrs by SEM analysis; format: functional, organism-based
Staphylococcus aureus [25] = test: Induction of morphological changes in methicillin-resistant Staphylococcus aureus ATCC 33591 assessed as appearance of shrinked cell surface at 1 time MIC measured after 4 hrs by SEM analysis; format: functional, organism-based
[26] = Hemolytic activity in rabbit RBC assessed as hemolysis rate at 0 to 100 ug/ml incubated for 1 hr by microplate reader analysis relative to control; format: toxicity, cell-based, Oryctolagus cuniculus, Erythrocyte; conditions: rabbit red blood cells, dose 0-100 µg/ml, read-out: Activity
[27] = Acute toxicity in po dosed female C57 mouse assessed as lethal dose measured after 48 hrs; format: organism-based; conditions: in vivo
Staphylococcus aureus [28] = test: Antibacterial activity against methicillin-resistant Staphylococcus aureus ATCC 33591 infected in female C57 mouse systemic infection model assessed as survival rate at 20 mg/kg, po measured upto 7 days relative to control; format: functional; conditions: ATCC 33591, 168 h, time <= 7 day
Staphylococcus aureus [29] = test: Antibacterial activity against methicillin-resistant Staphylococcus aureus ATCC 33591 infected in female C57 mouse systemic infection model assessed as effective dose; format: functional
Staphylococcus aureus [30] = test: Antibacterial activity against methicillin-resistant Staphylococcus aureus ATCC 33591 infected in female C57 mouse systemic infection model assessed as reduction in bacterial load in liver at 40 mg/kg, iv administered twice daily and measured after 7 days; format: functional; conditions: time 7 day
Staphylococcus aureus [31] = test: Antibacterial activity against methicillin-resistant Staphylococcus aureus ATCC 33591 infected in female C57 mouse systemic infection model assessed as reduction in bacterial load in heart at 40 mg/kg, iv administered twice daily and measured after 7 days; format: functional; conditions: time 7 day
[32] = Half life in mouse at 5 mg/kg, iv measured after 8 hrs; format: ADME, organism-based; conditions: in vivo
Staphylococcus aureus [33] = test: Antibacterial activity against methicillin-resistant Staphylococcus aureus ATCC 33591 infected in female C57 mouse systemic infection model assessed as reduction of mononuclear cell infiltration in liver at 40 mg/kg, iv administered twice daily and measured after 7 days by H and E staining based analysis; format: functional, organism-based; conditions: time 7.0 day
Staphylococcus aureus [34] = test: Antibacterial activity against methicillin-resistant Staphylococcus aureus ATCC 33591 infected in female C57 mouse systemic infection model assessed as reduction in tubular necrosis in kidney at 40 mg/kg, iv administered twice daily and measured after 7 days by H and E staining based analysis; format: functional, organism-based; conditions: time 7.0 day
Staphylococcus aureus [35] = test: Antibacterial activity against methicillin-resistant Staphylococcus aureus ATCC 33591 infected in female C57 mouse systemic infection model assessed as reduction in inflammatory infiltration in kidney at 40 mg/kg, iv administered twice daily and measured after 7 days by H and E staining based analysis; format: functional, organism-based; conditions: time 7.0 day
Staphylococcus aureus [36] = test: Antibacterial activity against methicillin-resistant Staphylococcus aureus ATCC 33591 infected in female C57 mouse systemic infection model assessed as reduction in local blood cell accumulation in spleen at 40 mg/kg, iv administered twice daily and measured after 7 days by H and E staining based analysis; format: functional, organism-based; conditions: time 7.0 day
Staphylococcus aureus [37] = test: Antibacterial activity against methicillin-resistant Staphylococcus aureus ATCC 33591 infected in female C57 mouse systemic infection model assessed as reduction in distorted myocardial fibers in heart at 40 mg/kg, iv administered twice daily and measured after 7 days by H and E staining based analysis; format: functional, organism-based; conditions: time 7.0 day

Compound: C=C[C@]1(C)C[C@@H](OC(=O)CSc2cc(=O)oc3cc(OC)ccc23)[C@]2(C)[C@H](C)CC[C@]3(CCC(=O)[C@H]32)[C@@H](C)[C@@H]1O
- MIC (Staphylococcus aureus [1]): 0.031 µg/mL (≈ 0.0545 µM)
- MIC [2]: 0.016 µg/mL (≈ 0.0281 µM)
- MIC (Enterococcus faecium [3]): 0.031 µg/mL (≈ 0.0545 µM)
- MIC (Streptococcus pneumoniae): 0.031 µg/mL (≈ 0.0545 µM)
- Ratio (Staphylococcus aureus [4]): 2
- Ratio (Staphylococcus aureus [5]): >4
- Ratio (Enterococcus faecium [6]): 1
- MIC (Staphylococcus aureus [7]): 0.063 µg/mL (≈ 0.111 µM)
- MIC [8]: 0.063 µg/mL (≈ 0.111 µM)
- Ratio (Staphylococcus aureus [9]): 1
- Ratio (Staphylococcus aureus [10]): 2
- Ratio (Enterococcus faecium [11]): 2
- Activity (Staphylococcus aureus [12]): Active
- Activity (Staphylococcus aureus [13]): Active
- Activity (Staphylococcus aureus [14]): Time-dependent-effect
- Activity (Staphylococcus aureus [15]): Dose-dependent-effect
- fold change (FC) (Staphylococcus aureus [16]): 4
- Activity (Staphylococcus aureus [17]): inactive
- PAE (Staphylococcus aureus [18]): 1.51 h
- Activity (Staphylococcus aureus [19]): 50.42%
- Activity (Staphylococcus aureus [20]): 80.67%
- Activity (Staphylococcus aureus [21]): 68.29%
- MBEC (Staphylococcus aureus [22]): 8 µg/mL
- Activity (Staphylococcus aureus [23]): Active
- Activity (Staphylococcus aureus [24]): Active
- Activity (Staphylococcus aureus [25]): Active
- hemolysis at 1 h [26]: < 4%
- LD50 at 48 h [27]: 2000 mg/kg
- survival at 20 mg/kg (Staphylococcus aureus [28]): 60%
- ED50 (Staphylococcus aureus [29]): 11.2 mg/kg
- Activity (Staphylococcus aureus [30]): 2.05 log10CFU/g
- Activity (Staphylococcus aureus [31]): 3.33 log10CFU/g
- half-life [32]: 1.52 h
- Activity (Staphylococcus aureus [33]): Active
- Activity (Staphylococcus aureus [34]): Active
- Activity (Staphylococcus aureus [35]): Active
- Activity (Staphylococcus aureus [36]): Active
- Activity (Staphylococcus aureus [37]): Active
